Structures can show the parent of a compound that is named as a salt.
Tests used:
Bcl-2 protein = biological target: T1, Bcl-2 protein (histag-Bcl-2, UniProtKB P10415) (Homo sapiens, UniProt P10415); test: Inhibition of Bcl-2 by the fluorescence polarisation technique; assay type: binding; details: for IC50: fluorescence polarisation, 2 hours incubation, read-out: IC50 (nM) Bcl-2 FP
T1 construct: His tag
Outline: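 Fluorescence polarisation competition: His-tagged human Bcl-2 (2.50×10^−8 M final) was mixed with fluorescein-labelled peptide (1.00×10^−8 M final) and increasing compound concentrations. Buffer was 10 mM Hepes, 150 mM NaCl, 0.05% Tween20, pH 7.4. Polarisation was read after 2 h.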

[1] = test system: RS4;11 leukaemia tumour line; test: In vitro cytotoxicity (MTT) on RS4;11; assay type: cell-based; details: RS4;11 cells, 48 hours exposure
Description: The cytotoxicity studies were carried out on the RS4;11 leukaemia tumour line.
The cells are distributed onto microplates and exposed to the test compounds for 48 hours.
The cell viability is then quantified by a colorimetric assay, the Microculture Tetrazolium Assay (Cancer Res., 1987, 47, 939-942).

T1 sequence (P10415 whole entry): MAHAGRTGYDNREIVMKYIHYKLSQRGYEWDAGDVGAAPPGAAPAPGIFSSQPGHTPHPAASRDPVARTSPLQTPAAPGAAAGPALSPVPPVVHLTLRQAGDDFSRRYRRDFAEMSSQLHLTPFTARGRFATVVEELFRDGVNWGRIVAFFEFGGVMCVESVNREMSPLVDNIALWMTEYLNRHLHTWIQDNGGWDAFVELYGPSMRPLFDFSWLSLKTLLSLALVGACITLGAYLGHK

COc1cc(N(C(=O)c2cc(-c3cc4c(cc3C(=O)N3Cc5ccccc5C[C@H]3C)OCO4)n3ccccc23)c2ccc(O)cc2)ccn1 [Example 56, N-(4-Hydroxyphenyl)-N-(2-methoxypyridin-4-yl)-3-(6-{[(3R)-3-methyl-3,4-dihydroisoquinolin-2(1H)-yl]carbonyl}-1,3-benzodioxol-5-yl)indolizine-1-carboxamide]
IC50 (Bcl-2 protein): 4.7 nM
IC50 ([1]; Homo sapiens): 36.7 nM

O=C(c1cc2c(cc1-c1cc(C(=O)N(c3ccccc3)c3ccc(O)cc3)c3n1CCCC3)OCO2)N1CCc2ccccc2C1 [Example 57, 3-[6-(3,4-Dihydroisoquinolin-2(1H)-ylcarbonyl)-1,3-benzodioxol-5-yl]-N-(4-hydroxyphenyl)-N-phenyl-5,6,7,8-tetrahydroindolizine-1-carboxamide]
IC50 (Bcl-2 protein): 21.2 nM
IC50 ([1]; Homo sapiens): 282 nM

CC(C)c1cc(N(C(=O)c2cc(-c3cc4c(cc3C(=O)N3Cc5ccccc5C[C@H]3C)OCO4)n3ccccc23)c2ccc(O)cc2)ccn1 [Example 58, N-(4-Hydroxyphenyl)-3-(6-{[(3R)-3-methyl-3,4-dihydroisoquinolin-2(1H)-yl]carbonyl}-1,3-benzodioxol-5-yl)-N-[2-(propan-2-yl)pyridin-4-yl)indolizine-1-carboxamide hydrochloride]
IC50 (Bcl-2 protein): 6.4 nM
IC50 ([1]; Homo sapiens): 68.5 nM

C[C@@H]1Cc2ccccc2CN1C(=O)c1cc2c(cc1-c1cc(C(=O)N(c3ccc(O)cc3)c3cnc4ccnn4c3)c3ccccn13)OCO2 [Example 59, N-(4-Hydroxyphenyl)-3-(6-{[(3R)-3-methyl-3,4-dihydroisoquinolin-2(1H)-yl]carbonyl}-1,3-benzodiaxol-5-yl)-N-(pyrazolo[1,5-a]pyrimidin-6-yl)indolizine-1-carboxamide]
IC50 (Bcl-2 protein): 4 nM
IC50 ([1]; Homo sapiens): 21.2 nM

C[C@@H]1Cc2ccccc2CN1C(=O)c1ccc(F)cc1-c1cc(C(=O)N(c2ccc(O)cc2)c2cnn(C)c2)c2ccccn12 [Example 60, 3-(5-Fluoro-2-{[(3R)-3-methyl-3,4-dihydroisoquinolin-2(1H)-yl]-carbonyl}phenyl)-N-(4-hydroxyphenyl)-N-(1-methyl-1H-pyrazol-4-yl)indolizine-1-carboxamide]
IC50 (Bcl-2 protein): 5.4 nM
IC50 ([1]; Homo sapiens): 60.3 nM

C[C@@H]1Cc2ccccc2CN1C(=O)c1ccc(F)cc1-c1cc(C(=O)N(c2ccc(O)cc2)c2cnn(C)c2)c2n1CCCC2 [Example 61, 3-(5-Fluoro-2-{[(3R)-3-methyl-3,4-dihydroisoquinolin-2(1H)-yl]-carbonyl}phenyl)-N-(4-hydroxyphenyl)-N-(1-methyl-1H-pyrazol-4-yl)-5,6,7,8-tetrahydroindolizine-1-carboxamide]
IC50 (Bcl-2 protein): 7 nM
IC50 ([1]; Homo sapiens): 61.3 nM

C[C@@H]1Cc2ccccc2CN1C(=O)c1ccc(F)cc1-c1cc(C(=O)N(c2ccncc2)c2ccc(O)cc2)c2ccccn12 [Example 62, 3-(5-Fluoro-2-{[(3R)-3-methyl-3,4-dihydroisoquinolin-2(1H)-yl]-carbonyl}phenyl)-N-(4-hydroxyphenyl)-N-(pyridin-4-yl)indolizine-1-carboxamide]
IC50 (Bcl-2 protein): 5.6 nM
IC50 ([1]; Homo sapiens): 96.6 nM

C[C@@H]1Cc2ccccc2CN1C(=O)c1ccc(F)cc1-c1cc(C(=O)N(c2ccc(O)cc2)c2cnc3c(ccn3C)c2)c2ccccn12 [Example 63, 3-(5-Fluoro-2-{[(3R)-3-methyl-3,4-dihydroisoquinolin-2(1H)-yl]-carbonyl}phenyl)-N-(4-hydroxyphenyl)-N-(1-methyl-1H-pyrrolo[2,3-b]pyridin-5-yl)indolizine-1-carboxamide]
IC50 (Bcl-2 protein): 6.2 nM
IC50 ([1]; Homo sapiens): 25.4 nM

C[C@@H]1Cc2ccccc2CN1C(=O)c1ccc(F)cc1-c1cc(C(=O)N(c2ccncc2)c2ccc(O)cc2)c2n1CCCC2 [Example 64, 3-(5-Fluoro-2-{[(3R)-3-methyl-3,4-dihydroisoquinolin-2(1H)-yl]-carbonyl}phenyl)-N-(4-hydroxyphenyl)-N-(pyridin-4-yl)-5,6,7,8-tetrahydroindolizine-1-carboxamide]
IC50 (Bcl-2 protein): 7.8 nM
IC50 ([1]; Homo sapiens): 282 nM

C[C@@H]1Cc2ccccc2CN1C(=O)c1ccc(F)cc1-c1cc(C(=O)N(c2ccc(O)cc2)c2cnc3c(ccn3C)c2)c2n1CCCC2 [Example 65, 3-(5-Fluoro-2-{[(3R)-3-methyl-3,4-dihydroisoquinolin-2(1H)-yl]-carbonyl}phenyl)-N-(4-hydroxyphenyl)-N-(1-methyl-1H-pyrrolo[2,3-b]pyridin-5-yl)-5,6,7,8-tetrahydroindolizine-1-carboxamide]
IC50 (Bcl-2 protein): 5.3 nM
IC50 ([1]; Homo sapiens): 62.8 nM

C[C@@H]1Cc2ccccc2CN1C(=O)c1cc2c(cc1-c1cc(C(=O)N(c3ccc(O)cc3)c3cnc4ncnn4c3)c3ccccn13)OCO2 [Example 66, N-(4-Hydroxyphenyl)-3-(6-{[(3R)-3-methyl-3,4-dihydroisoquinolin-2(1H)-yl]carbonyl}-1,3-benzodioxol-5-yl)-N-([1,2,4]triazolo[1,5-a]pyrimidin-6-yl)-indolizine-1-carboxamide]
IC50 (Bcl-2 protein): 4.7 nM
IC50 ([1]; Homo sapiens): 42 nM

C[C@@H]1Cc2ccccc2CN1C(=O)c1ccccc1-c1cc(C(=O)N(c2ccncc2)c2ccc(O)cc2)c2ccccn12 [Example 68, N-(4-Hydroxyphenyl)-3-(2-{[(3R)-3-methyl-3,4-dihydroisoquinolin-2(1H)-yl]carbonyl}phenyl)-N-(pyridin-4-yl)indolizine-1-carboxamide hydrochloride]
IC50 (Bcl-2 protein): 8.3 nM
IC50 ([1]; Homo sapiens): 82.4 nM

Cn1ccc2cc(N(C(=O)c3cc(-c4cc5c(cc4C(=O)N4Cc6ccccc6C[C@H]4CCCN4CCOCC4)OCO5)n4c3CCCC4)c3ccc(O)cc3)cnc21 [Example 69, N-(4-Hydroxyphenyl)-N-(1-methyl-1H-pyrrolo[2,3-b]pyridin-5-yl)-3-(6-{[(3R)-3-[3-(morpholin-4-yl)propyl]-3,4-dihydroisoquinolin-2(1H)-yl]carbonyl}-1,3-benzodioxol-5-yl)-5,6,7,8-tetrahydroindolizine-1-carboxamide hydrochloride]
IC50 (Bcl-2 protein): 4.6 nM
IC50 ([1]; Homo sapiens): 1.38 nM

C[C@@H]1Cc2ccccc2CN1C(=O)c1cc2c(cc1-c1cc(C(=O)N(c3ccc(O)cc3)c3cnc4c(cnn4C)c3)c3ccccn13)OCO2 [Example 70, N-(4-Hydroxyphenyl)-3-(6-{[(3R)-3-methyl-3,4-dihydroisoquinolin-2(1,H)-yl]carbonyl]-1,3-benzodioxol-5-yl)-N-(1-methyl-1H-pyrazolo[3,4-b]pyridin-5-yl)indolizine-1-carboxamide]
IC50 (Bcl-2 protein): 5.2 nM
IC50 ([1]; Homo sapiens): 6.17 nM

C[C@@H]1Cc2ccccc2CN1C(=O)c1cc2c(cc1-c1cc(C(=O)N(C)c3ccc(O)cc3)c3n1CCNC3)OCO2 [Example 72, N-(4-Hydroxyphenyl)-N-methyl-6-(6-{[(3R)-3-methyl-3,4-dihydroiso-quinolin-2(1H)-yl]carbonyl}-1,3-benzodioxol-5-yl)-1,2,3,4-tetrahydropyrrolo[1,2-a]-pyrazine-8-carboxamide]
IC50 (Bcl-2 protein): 90.2 nM
IC50 ([1]; Homo sapiens): 1520 nM

CCN(C(=O)c1cc(-c2cc3c(cc2C(=O)N2Cc4ccccc4C[C@H]2C)OCO3)n2c1CNCC2)c1ccc(O)cc1 [Example 73, N-Ethyl-N-(4-hydroxyphenyl)-6-(6-{[(3R)-3-methyl-3,4-dihydroiso-quinolin-2(1H)-yl]carbonyl}-1,3-benzodioxol-5-yl)-1,2,3,4-tetrahydropyrrolo[1,2-a]-pyrazine-8-carboxamide]
IC50 (Bcl-2 protein): 83.6 nM
IC50 ([1]; Homo sapiens): 1320 nM

CN(C(=O)c1cc(-c2cc3c(cc2C(=O)N2CCc4ccccc4C2)OCO3)n2c1CCCC2)c1ccc(O)cc1 [Example 74, 3-[6-(3,4-Dihydroisoquinolin-2(1H)-ylcarbonyl)-1,3-benzodioxol-5-yl]-N-(4-hydroxyphenyl)-N-methyl-5,6,7,8-tetrahydroindolizine-1-carboxamide]
IC50 (Bcl-2 protein): 68.7 nM
IC50 ([1]; Homo sapiens): 1340 nM

CCN(C(=O)c1cc(-c2cc3c(cc2C(=O)N2CCc4ccccc4C2)OCO3)n2c1CCCC2)c1ccc(O)cc1 [Example 75, 3-[6-(3,4-Dihydroisoquinolin-2(11)-ylcarbonyl)-1,3-benzodioxol-5-yl]-N-ethyl-N-(4-hydroxyphenyl)-5,6,7,8-tetrahydroindolizine-1-carboxamide]
IC50 (Bcl-2 protein): 67.7 nM
IC50 ([1]; Homo sapiens): 1360 nM

CCCCN(C(=O)c1cc(-c2cc3c(cc2C(=O)N2CCc4ccccc4C2)OCO3)n2c1CCCC2)c1ccc(O)cc1 [Example 76, N-Butyl-3-[6-(3,4-dihydroisoquinolin-2(1H)-ylcarbonyl)-1,3-benzo-dioxol-5-yl]-N-(4-hydroxyphenyl)-5,6,7,8-tetrahydroindolizine-1-carboxamide]
IC50 (Bcl-2 protein): 77.6 nM
IC50 ([1]; Homo sapiens): 1630 nM

CCN(C(=O)c1cc(-c2cc3c(cc2C(=O)N2Cc4ccccc4C[C@@H]2C)OCO3)n2c1CNCC2)c1ccc(O)cc1 [Example 77, N-Ethyl-N-(4-hydroxyphenyl)-6-(6-{[(3S)-3-methyl-3,4-dihydroiso-quinolin-2(1H)-yl]carbonyl}-1,3-benzodioxol-5-yl)-1,2,3,4-tetrahydropyrrolo[1,2-a]-pyrazine-8-carboxamide]
percentage fluorescence polarisation inhibition (partial inhibitors), Bcl-2 FP (Bcl-2 protein; @ 10 μM test compound): 25.1% @ 10 μM
IC50 [1]: 1880 nM

CCCCN(CCCC)C(=O)c1cc(-c2cc3c(cc2C(=O)N2Cc4ccccc4C[C@H]2C)OCO3)n2c1CNCC2 [Example 78, N,N-Dibutyl-6-(6-{[(3R)-3-methyl-3,4-dihydroisoquinolin-2(1H)-yl]-carbonyl}-1,3-benzodioxol-5-yl)-1,2,3,4-tetrahydropyrrolo[1,2-a]pyrazine-8-carboxamide]
IC50 (Bcl-2 protein): 823 nM
IC50 ([1]; Homo sapiens): 1880 nM

CCCCN(C(=O)c1cc(-c2cc3c(cc2C(=O)N2Cc4ccccc4C[C@H]2C)OCO3)n2c1CNCC2)c1ccc(O)cc1 [Example 79, N-Butyl-N-(4-hydroxyphenyl)-6-(6-{[(3R)-3-methyl-3,4-dihydroiso-quinolin-2(1H)-yl]carbonyl}-1,3-benzodioxol-5-yl)-1,2,3,4-tetrahydropyrrolo[1,2-a]-pyrazine-8-carboxamide]
IC50 (Bcl-2 protein): 99.1 nM
IC50 ([1]; Homo sapiens): 1010 nM
